The target in data set [1] is T1, Receptor-interacting serine/threonine-protein kinase 1 (Homo sapiens, UniProt Q13546).
T1 sequence (Q13546 whole entry): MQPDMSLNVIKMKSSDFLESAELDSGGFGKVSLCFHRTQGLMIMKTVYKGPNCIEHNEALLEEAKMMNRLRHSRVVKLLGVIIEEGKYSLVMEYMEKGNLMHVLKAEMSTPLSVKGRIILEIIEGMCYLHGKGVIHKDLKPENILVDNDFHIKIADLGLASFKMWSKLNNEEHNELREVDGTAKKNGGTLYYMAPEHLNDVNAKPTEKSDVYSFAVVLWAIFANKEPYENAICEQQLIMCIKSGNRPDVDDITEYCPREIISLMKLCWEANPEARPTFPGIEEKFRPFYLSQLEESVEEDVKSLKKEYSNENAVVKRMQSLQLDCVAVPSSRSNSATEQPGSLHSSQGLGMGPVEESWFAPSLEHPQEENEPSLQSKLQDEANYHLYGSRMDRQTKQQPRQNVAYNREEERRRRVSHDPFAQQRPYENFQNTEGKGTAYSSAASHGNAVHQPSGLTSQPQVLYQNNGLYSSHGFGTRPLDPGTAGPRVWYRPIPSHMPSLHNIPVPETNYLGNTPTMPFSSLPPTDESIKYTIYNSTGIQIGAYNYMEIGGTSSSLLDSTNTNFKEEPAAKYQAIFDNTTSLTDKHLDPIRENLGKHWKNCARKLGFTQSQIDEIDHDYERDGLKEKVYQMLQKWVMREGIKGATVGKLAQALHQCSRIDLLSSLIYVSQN
Put plainly: Inhibition of human N-terminal His-GST-TEV-fused RIP1 kinase domain (1 to 375) autophosphorylation expressed in baculovirus infected insect Sf9 cells after 4 hrs by ADP-Glo luminescence assay. On the technique in general: In ADP-Glo the light output rises with the ADP produced.

Data set [2] concerns the target T1, Receptor-interacting serine/threonine-protein kinase 1. In words: Displacement of (14-(2-{[3-({2-{[4-(cyanomethyl)phenyl]amino}-6-[(5-cyclopropyl-1H-pyrazol-3-yl)amino]-4-pyrimidinyl}amino)propyl]amino}-2-oxoethyl)-16,16,18,18-tetramethyl-6,7,7a,8a,9,10,16,18-octahydrobenzo[2'',3'']indolizino[8'',7'':5',6']pyrano[3',2':3,4]pyrido[1,2-a]indol-5-ium-2-sulfonate from human N-terminal His-GST-TEV-fused RIP1 kinase domain (1 to 375) expressed in baculovirus infected insect Sf9 cells preincubated for 10 mins followed by fluorescent ligand addition measured after 15 mins by fluorescence polarization assay.

The subject of data set [3] is Mus musculus. In words: Antiinflammatory activity in po dosed mouse TNFalpha-induced lethal shock model assessed as protection from body temperature loss administered 15 mins prior to TNFalpha challenge measured over 7 hrs. The format is functional, organism-based.
The nature of data set [4]: Permeability of the compound. The format is ADME. Conditions: not told; read-out: permeability.
The nature of data set [5]: Solubility of the compound. The format is physicochemical.
Data set [6] can be described thus: Fraction unbound in mouse. In kind it is ADME, organism-based. To be noted: in vivo.
In data set [7] the test system is Mus musculus. Put plainly: Antiinflammatory activity in mouse TNFalpha-induced lethal shock model assessed as protection from body temperature loss at 20 mg/kg, po administered 15 mins prior to TNFalpha challenge measured over 7 hrs relative to TNFalpha-treated control. In kind it is functional.
Data set [8] concerns Mus musculus. In words: Antiinflammatory activity in mouse TNFalpha-induced lethal shock model assessed as protection from body temperature loss at 2 mg/kg, po administered 15 mins prior to TNFalpha challenge measured over 7 hrs relative to TNFalpha-treated control. In kind it is functional.
The nature of data set [9]: Cmax in C57BL/6 mouse at 2 mg/kg, po measured at 4 hrs. In kind it is ADME, organism-based. The arrangement: dose 2 mg/kg, route oral. To be noted: in vivo.
Data set [10] has as its system Mus musculus. In words: Antiinflammatory activity in mouse TNFalpha-induced lethal shock model assessed as protection from body temperature loss at 0.2 mg/kg, po administered 15 mins prior to TNFalpha challenge measured over 7 hrs relative to TNFalpha-treated control. The format is functional.
A short description of data set [11]: AUC in C57BL/6 mouse at 2 mg/kg, po measured at 4 hrs. The arrangement: dose 2 mg/kg, route oral. To be noted: plasma. The format is ADME, organism-based.

The structures appear in SMILES notation. ≈ marks a conversion by molar mass, not a printed value. A value given as a limit tells only on which side of the number the result lay.

What is called IC50 is the concentration that gives 50% inhibition. A higher IC50 goes with weaker potency in that assay. Broadly, the solubility is how much of the substance goes into solution per volume. A lower solubility goes with a poorly soluble substance. Broadly, the Cmax is the maximum level reached in the sampled fluid or tissue. The AUC is concentration integrated over time. The low end stands for low exposure, the high end for high exposure.

On to `CCS(=O)(=O)c1ccc(-c2cnc3[nH]cc(-c4cccc(NC(=O)Nc5cc(C(F)(F)F)ccc5F)c4)c3c2)cc1`, for which the IC50 came to 10 nM in data set [1] and 3.2 nM in data set [2].
Take `Nc1ncnc2occ(-c3ccc(NC(=O)Nc4cccc(Cl)c4)cc3)c12`: the IC50 in data set [1] came to 200 nM; in [2] it was 160 nM.
For `O=C(Nc1cccc(-c2c[nH]c3ncc(-c4ccccc4)cc23)c1)Nc1cc(C(F)(F)F)ccc1F`, the IC50 turned out to be 80 nM in [1] and 200 nM in [2].
In the case of `COc1cccc(NC(=O)Nc2cccc(-c3c[nH]c4ncc(-c5ccccc5)cc34)c2)c1`, the concentration for half-maximal inhibition (IC50) in data set [1] is 6.3 nM; in [2], 32 nM.
As for `Nc1nccc2c(-c3ccc(NC(=O)Nc4ccc(Cl)c(C(F)(F)F)c4)cc3)cccc12`, the IC50 in data set [1] worked out at 160 nM; in [2] it was 40 nM.
For `Nc1ncnc2occ(-c3ccc(NC(=O)Nc4cc(C(F)(F)F)ccc4F)cc3)c12` [GW770249X], the Activity entry in data set [3] is “Dose-dependent effect”; in data set [7] it was 77%; in data set [8], 22%; in data set [10] it was 15%. Besides, the Papp in [4] turned out to be 21 ×10⁻⁶ cm/s. The same compound displayed a solubility in data set [5] of 13 µM (≈ 5.61 µg/mL). Besides, in data set [6], the Fu came to 0.04%. The compound also came in with a maximum concentration (Cmax) in data set [9] of 1100 ng/mL. The AUC at 4 h in data set [11] turned out to be 14000 ng·h/mL.
As to `Nc1ccc(-c2cnc3[nH]cc(-c4cccc(NC(=O)Nc5cc(C(F)(F)F)ccc5F)c4)c3c2)cc1`, the concentration for half-maximal inhibition (IC50) was determined as 50 nM in data set [1] and 32 nM in data set [2].
Regarding `Nc1nccc2c(-c3ccc(NC(=O)Nc4cc(C(F)(F)F)ccc4F)cc3)cccc12`, the IC50 in data set [1] is 130 nM; in [2] it was 13 nM.
`Nc1nccc2c(-c3ccc(NC(=O)Nc4cc(C(F)(F)F)ccc4Cl)cc3)cccc12`: the 50% inhibitory concentration (IC50) came to 630 nM in data set [1] and 3200 nM in data set [2].
For `O=C(Nc1cccc(-c2c[nH]c3ncc(-c4ccccc4)cc23)c1)Nc1cccc([N+](=O)[O-])c1`, in that order: 16 nM and 16 nM.
As to `O=C(Nc1ccccc1)Nc1cccc(-c2c[nH]c3ncc(-c4ccccc4)cc23)c1`, the IC50 was 400 nM in [1] and 1300 nM in data set [2].
For `Nc1ncnc2occ(-c3ccc(NC(=O)Nc4cc(F)cc(C(F)(F)F)c4)cc3)c12`, the figures for the IC50 in data set [1] and in [2] were 63 nM and 130 nM, respectively.
Take `CC(=O)c1cccc(NC(=O)Nc2cccc(-c3c[nH]c4ncc(-c5ccccc5)cc34)c2)c1`: the figures for the concentration for half-maximal inhibition (IC50) in [1] and in data set [2] were 10 nM and 13 nM, respectively.
On to `Nc1ncnc2occ(-c3ccc(NC(=O)Nc4ccc(Cl)c(C(F)(F)F)c4)cc3)c12`, for which the figures for the concentration for half-maximal inhibition (IC50) in data set [1] and in [2] were 32 nM and 160 nM, respectively.
Regarding `Nc1ncnc2occ(-c3ccc(NC(=O)Nc4ccc5ccccc5c4)cc3)c12`, the 50% inhibitory concentration (IC50) in [2] amounted to 100 nM.
Take `Nc1nccc2c(-c3ccc(NC(=O)Nc4cc(F)cc(C(F)(F)F)c4)cc3)cccc12`: the IC50 in [1] came to 25 nM; in data set [2] it was 160 nM.
On the same counts, the results for `O=C(Nc1cccc(-c2c[nH]c3ncc(-c4ccccc4)cc23)c1)NC1CCCC1` are 500 nM and 2000 nM.
`Nc1nccc2c(-c3ccc(NC(=O)Nc4cccc(C(F)(F)F)c4)cc3)cccc12`: the results for the IC50 in data set [1] and in data set [2] were 25 nM and 20 nM, respectively.
For `O=C(Nc1cccc(-c2c[nH]c3ncc(-c4cccnc4)cc23)c1)Nc1cc(C(F)(F)F)ccc1F`, in that order: 4 nM and 7.9 nM.
On to `CCc1cccc(NC(=O)Nc2ccc(-c3coc4ncnc(N)c34)cc2)c1`, for which the figures for the half-inhibitory concentration (IC50) in data set [1] and in data set [2] were 10 nM and 25 nM, respectively.
In the case of `CC(C)(C)c1cc(NC(=O)Nc2ccc(-c3coc4ncnc(N)c34)cc2)no1`, the IC50 stood at 16 nM in data set [1] and 32 nM in [2].
As to `O=C(Nc1cccc(-c2c[nH]c3ncc(-c4cn[nH]c4)cc23)c1)Nc1cc(C(F)(F)F)ccc1F`, the results for the concentration for half-maximal inhibition (IC50) in data set [1] and in data set [2] were 6 nM and 16 nM, respectively.
`Nc1ncnc2occ(-c3ccc(NC(=O)Nc4cc(C(F)(F)F)ccc4Cl)cc3)c12`: the IC50 was 2500 nM in data set [1] and more than 10000 nM in data set [2].
On the same counts, the results for `Nc1ncnc2occ(-c3ccc(NC(=O)Nc4cccc(C(F)(F)F)c4)cc3)c12` [GW795493X] are 10 nM and 20 nM.
For `O=C(Nc1cccc(-c2c[nH]c3ncc(-c4ccccc4)cc23)c1)Nc1cccc(C(F)(F)F)c1`, in that order: 32 nM and 32 nM.
With `Nc1nccc2c(-c3ccc(NC(=O)Nc4ccc(F)c(C(F)(F)F)c4)cc3)cccc12`, the IC50 amounted to 10 nM in data set [1] and 320 nM in data set [2].
Regarding `Nc1ncnc2occ(-c3ccc(NC(=O)Nc4cc(C(F)(F)F)cc(C(F)(F)F)c4)cc3)c12` [GW795486X], the IC50 in data set [1] came out at 32 nM; in [2], 320 nM.
On the same counts, the results for `Nc1ncnc2occ(-c3ccc(NC(=O)Nc4cccc(C(F)(F)F)c4F)cc3)c12` are 200 nM and 250 nM.
`CS(=O)(=O)c1cccc(-c2cnc3[nH]cc(-c4cccc(NC(=O)Nc5cc(C(F)(F)F)ccc5F)c4)c3c2)c1`: the IC50 in data set [1] worked out at 10 nM; in data set [2] it was 63 nM.
On to `NC(=O)c1cccc(-c2cnc3[nH]cc(-c4cccc(NC(=O)Nc5cc(C(F)(F)F)ccc5F)c4)c3c2)c1`, for which the IC50 in data set [1] was 10 nM; in data set [2] it was 16 nM.
On the same counts, the results for `Nc1nccc2c(-c3ccc(NC(=O)Nc4cccc(C(F)(F)F)c4F)cc3)cccc12` are 4000 nM and more than 10000 nM.
`Nc1ncnc2occ(-c3ccc(NC(=O)Nc4ccc(F)c(C(F)(F)F)c4)cc3)c12`: the IC50 worked out at 500 nM in data set [1] and 160 nM in [2].

(Values after ChEMBL document CHEMBL3108776, “Discovery of Small Molecule RIP1 Kinase Inhibitors for the Treatment of Pathologies Associated with Necroptosis” (ACS Med Chem Lett, 2013).)
